Laboratory results published in US9364448B2, “Nitisinone for treatment of oculocutaneous/ocular albinism and for increasing pigmentation” (The United States of America, as represented by the …, priority 2010, dated 2016).
Numbering of substitutions follows the chain as printed.

How the values were obtained:
[1] = tested on: male Alpk:ApfCD-1 albino mice; details: cited from earlier work
[2] = molecular target: T1, H420R mouse tyrosinase (Mus musculus, UniProt P11344, H420R); test: Tyrosinase protein stability in CHO cells with cycloheximide, H420R; assay type: cell-based; details: 1 mM tyrosine, later time points (9 and 24 hours)
T1 construct: expressed in transfected cells; host or cells: CHO cells, pcDNA3.1
T1 sequence (P11344 19-533 H420R): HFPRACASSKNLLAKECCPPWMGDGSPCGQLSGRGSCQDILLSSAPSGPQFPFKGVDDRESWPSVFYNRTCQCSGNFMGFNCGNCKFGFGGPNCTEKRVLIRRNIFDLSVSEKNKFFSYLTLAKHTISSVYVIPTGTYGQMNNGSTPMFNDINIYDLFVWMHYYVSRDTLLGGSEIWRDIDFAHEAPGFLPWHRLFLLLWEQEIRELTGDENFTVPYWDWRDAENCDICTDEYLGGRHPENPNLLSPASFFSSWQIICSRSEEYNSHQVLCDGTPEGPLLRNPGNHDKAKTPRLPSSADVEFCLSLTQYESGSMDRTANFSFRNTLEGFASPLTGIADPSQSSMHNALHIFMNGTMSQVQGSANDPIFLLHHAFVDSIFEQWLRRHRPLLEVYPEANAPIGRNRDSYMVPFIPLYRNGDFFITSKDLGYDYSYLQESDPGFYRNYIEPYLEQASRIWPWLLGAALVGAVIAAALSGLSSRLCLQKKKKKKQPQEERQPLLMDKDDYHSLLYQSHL
Method: (§1) In Vitro Expression and Enzyme Activity. The expression construct of mouse Tyr was a kind gift of Dr. C. Olivares from the School of Medicine of the University of Murcia (Spain). This construct was prepared in the pcDNA3.1 expression vector (Invitrogen, Carlsbad, Calif.) using EcoRI/XbaI restriction sites and based on the mouse Tyr clone obtained as described previously in C. Olivares, et al., Biochem. J., 354:131 (2001). Constructs of tyrosinase gene mutant variants, with changes corresponding to missense mutations R77L and H420R in the mouse tyrosinase protein sequence, were created using standard methodologies (Mutagenex Inc., Piscataway, N.J.). […]
(§2) Chinese hamster ovary cells (CHO) (generous gift from Dr. J. T. Wroblewski from the Pharmacology Department, Georgetown University Medical Center, Washington D.C.) were grown at a temperature of about 37° C. in DMEM media, in the presence of 10% fetal bovine serum, 1% penicillin and 4.5 g […] per 0.5 liter of media. […] The total protein content in protein lysates was determined spectrophotometrically as a 280/260 ratio. Protein expression was analyzed by Western blotting, and GAPDH was used as an internal loading control. For the analysis, Western blots were scanned, intensities of protein bands were determined, and ratios of band intensities for the wild type or mutant variants, to that of GAPDH were calculated. […]

[3] = molecular target: T2, R77L mouse tyrosinase (Mus musculus, UniProt P11344, R77L); test: Tyrosinase protein stability in CHO cells with cycloheximide, R77L; assay type: cell-based; details: 1 mM tyrosine
T2 construct: expressed in transfected cells; host or cells: CHO cells, pcDNA3.1
T2 sequence (P11344 19-533 R77L): T1 sequence (P11344 19-533 H420R) with R59L, R402H
Method: as §1, §2

For `O=C1CCCC(=O)C1C(=O)c1ccc(C(F)(F)F)cc1[N+](=O)[O-]` [NTBC, 2-(-2-nitro-4 trifluoromethylbenzoyl)-1,3 cyclohexanedione], the “Tolerated NTBC dose” value ([1]; male Alpk:ApfCD-1 albino mice, age 3-6 weeks) is given as “up to 160 mg/kg/day” and the “NTBC dose at which maximum plasma tyrosine concentrations were achieved” value ([1]; mice, toxicologic studies (Lock et al.)) is given as ≤ 10 mg/kg.
With `N[C@@H](Cc1ccc(O)cc1)C(=O)O` [tyrosine] the “Stability of H420R mutant tyrosinase protein relative to GAPDH” value [2] was “improved the stability” and the “Stabilization of R77L mutant tyrosinase protein relative to GAPDH” value [3] was “not statistically significant”.
